Holding throughout (test): NCI-60 cell line screen, 48 h
Assay [1] has as its system K-562 leukemia.
For assay [2], the system named is HCT-15 colon.
The test system of assay [3] is NCI-H23 lung.
Assay [4] relates to LOX IMVI melanoma.
The test system of assay [5] is OVCAR-4 ovarian.
Assay [6] relates to SW-620 colon.
The test system of assay [7] is SNB-19 CNS.
For assay [8], the system named is IGROV1 ovarian.
The subject of assay [9] is SK-MEL-2 melanoma.
For assay [10], the system named is DU-145 prostate.

SMILES strings stand for the structures.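 All cell lines were grown in 96-well plates and treated with compound for 48 hours. GI50 is the concentration that inhibits growth by half. At the TGI there is no net growth.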

As to `O=C(c1ccccc1)N1C2CCC1C(C(F)(F)F)=C2C(F)(F)F`, the TGI in [1], in [2], in assay [3], in assay [4], in assay [5] and in assay [6] was over 100 µM in each case. In addition, the TGI in [7] and in [8] was over 100 µM each time.

As to `N#Cc1ccccc1NC(=O)C(=O)c1c(O)c2ccccc2oc1=O`, the TGI in [1], in [2], in assay [9], in assay [3], in assay [4] and in assay [5] was over 100 µM in each case. Also, the TGI in assay [6], in [7] and in assay [8] was over 100 µM in each case.

In the case of `NS(=O)(=O)c1ccc(NC2=CC(=O)C(=O)c3ccccc32)cc1`, the TGI in assay [1], in [2], in assay [9], in [3], in assay [4] and in [5] was over 100 µM throughout. Further, the TGI in assay [6], in assay [7] and in [8] was over 100 µM throughout.

`COc1c(C(=O)c2ccc([N+](=O)[O-])cc2)cc(C(C)(C)C)cc1C(C)(C)C`: the TGI is over 100 µM in [1]; over 100 µM in assay [2]; 30.1 µM in assay [9]; over 100 µM in [3]; 27.7 µM in assay [4]; over 100 µM in assay [5]. The TGI in assay [6], in assay [7] and in assay [8] was over 100 µM in each case.

As to `CC1CC(=O)Nc2ccccc2N1C(=O)CN1CCC(CCCCN(C)C)CC1` (stereo not drawn), the TGI in assay [1], in assay [2], in assay [9], in assay [3], in [4] and in [5] was over 100 µM in each case. The TGI in [6], in assay [7] and in assay [8] was over 100 µM throughout.

On to `O=C1CCC2CC(C(=O)c3ccccc3)CCC2CN1` (stereo not drawn) (tested in a mixture with another compound), for which the TGI in [1], in assay [2], in assay [9], in [3], in assay [5] and in [6] was over 100 µM each time. Moreover, the TGI in assay [7] and in assay [8] was over 100 µM throughout.

Take `CC1C[C@H](C)CC(C(O)CC2CC(=O)N(Cc3ccccc3)C(=O)C2)C1O` (stereo partly drawn): the TGI in [1], in [3], in assay [4], in assay [5], in assay [6] and in [7] was over 100 µM in each case. Besides, the TGI in [8] was over 100 µM.

In the case of `CCCCCCCCOCC(O)COC(=O)CCCCCCC` (stereo not drawn), the TGI in [1], in [2], in assay [3], in [4], in assay [5] and in assay [6] was over 100 µM throughout. Besides, the TGI in assay [7] and in assay [8] was over 100 µM throughout.

With `CCOC(=O)CSC(=O)NCCCl`, the GI50 in assay [1] is 29 µM. Moreover, the TGI in assay [1], in assay [2], in [9], in assay [3], in [5] and in assay [6] was over 100 µM in each case. In addition, the TGI in assay [7] and in [8] was over 100 µM each time.

Consider `COC(=O)/C=C(\C(=O)OC)c1c2c3c(cc(OC)c(OC)c3c3ccccc13)CCN2C`, for which the TGI in assay [1] was 90.8 µM; in assay [2], over 100 µM; in assay [9], over 100 µM; in assay [3], over 100 µM; in assay [4] it was over 100 µM; in [6] it was over 100 µM. Also, the results for the TGI in assay [7] and in assay [8] were over 100 µM and 99.4 µM, respectively.

Take `COc1ccc(C2CC(c3cc(C)ccc3O)=NC(N)=N2)cc1` (stereo not drawn): the TGI in assay [1], in assay [2], in [3], in [4], in assay [5] and in assay [6] was over 100 µM throughout. Besides, the TGI in assay [7] and in assay [8] was over 100 µM throughout.

In the case of `C=C(C)[C@@H]1CC[C@]2(C(=O)O)CC[C@]3(C)[C@H](CC[C@@H]4[C@@]5(C)C[C@@H](CC#Cc6ccc(C(F)(F)F)cc6)[C@H](O)C(C)(C)[C@@H]5CC[C@]43C)[C@@H]12`, the GI50 in assay [1] was 1.93 µM; in assay [2], 3.95 µM; in assay [9], 2.08 µM; in [10], 3.52 µM; in [7], 3.29 µM; in assay [8], 3.56 µM. In addition, the TGI in [1] is over 100 µM; in assay [2], over 100 µM; in [9] it was 4.58 µM; in assay [10], over 100 µM; in [7], over 100 µM; in assay [8], over 100 µM.

As to `O=C(c1ccccc1)[C@H]1Nc2ccc(Cl)cc2C2c3ccccc3CC21` (stereo partly drawn), the TGI in assay [1] is over 100 µM; in assay [2], over 100 µM; in assay [9], over 100 µM; in [3] it was over 100 µM; in [4] it was over 100 µM; in [5], 50.9 µM. Also, the TGI in assay [6], in [7] and in assay [8] was over 100 µM throughout.

In the case of `CC(=O)c1ccc(OCC(O)CO)cc1` (stereo not drawn), the TGI in [1] was over 100 µM; in [2], over 100 µM; in assay [3] it was over 100 µM; in assay [5], over 100 µM; in assay [6] it was 29.4 µM; in assay [7] it was over 100 µM. The TGI in [8] was over 100 µM.

With `OCC(O)C(O)C(O)c1nn(-c2ccc(Cl)cc2)c2nc3cc(Cl)c(Cl)cc3nc12` (stereo not drawn), the TGI in [1] was over 100 µM; in assay [9] it was over 100 µM; in assay [3] it was 85.1 µM; in assay [4], over 100 µM; in assay [5] it was over 100 µM; in assay [6] it was over 100 µM. Moreover, the TGI in assay [7] and in [8] was over 100 µM throughout.

Values taken from PubChem BioAssay (NCI).
